Data on 28 compounds can be found in ChEMBL document CHEMBL1144330, “Novel pyrazinone mono-amides as potent and reversible caspase-3 inhibitors” (Bioorg Med Chem Lett, 2005).

Assay [1] addresses T1, Caspase-1 (Homo sapiens, UniProt P29466).
T1 sequence (P29466 whole entry): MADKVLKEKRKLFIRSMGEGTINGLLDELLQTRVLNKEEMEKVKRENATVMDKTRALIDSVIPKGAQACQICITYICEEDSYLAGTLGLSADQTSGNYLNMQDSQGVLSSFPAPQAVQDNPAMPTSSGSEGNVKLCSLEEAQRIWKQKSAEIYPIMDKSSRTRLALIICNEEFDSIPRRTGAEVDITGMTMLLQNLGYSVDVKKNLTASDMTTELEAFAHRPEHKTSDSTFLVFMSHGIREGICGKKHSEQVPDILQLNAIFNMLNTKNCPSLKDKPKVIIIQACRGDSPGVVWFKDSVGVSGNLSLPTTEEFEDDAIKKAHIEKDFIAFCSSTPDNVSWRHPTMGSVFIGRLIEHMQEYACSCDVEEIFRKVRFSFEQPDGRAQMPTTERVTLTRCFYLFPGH
Description: Inhibitory concentration against recombinant human caspase-1 in neuronal precursor (NT2) cells.

Assay [2] addresses T2, Caspase-3 (Homo sapiens, UniProt P42574).
T2 sequence (P42574 whole entry): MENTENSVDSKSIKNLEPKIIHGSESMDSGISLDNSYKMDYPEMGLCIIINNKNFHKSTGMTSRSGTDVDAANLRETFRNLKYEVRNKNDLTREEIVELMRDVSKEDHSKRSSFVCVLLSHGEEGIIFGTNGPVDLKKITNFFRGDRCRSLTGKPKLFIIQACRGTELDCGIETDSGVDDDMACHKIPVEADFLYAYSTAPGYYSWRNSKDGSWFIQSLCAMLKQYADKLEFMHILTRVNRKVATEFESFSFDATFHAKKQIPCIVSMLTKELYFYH
Put plainly: Inhibitory concentration against recombinant human caspase-3 in neuronal precursor (NT2) cells.

Assay [3] has as its system NT2. Description: Inhibitory concentration against camptothecin induced apoptosis in neuronal precursor (NT2) whole cells. The settings on record: Homo sapiens. In kind it is functional, cell-based.
The target in assay [4] is Caspase-8 (Homo sapiens, UniProt Q14790). Put plainly: Inhibitory concentration against recombinant human caspase-8 […].
For assay [5], the target named is T3, Caspase-7 (Homo sapiens, UniProt P55210).
T3 sequence (P55210 whole entry): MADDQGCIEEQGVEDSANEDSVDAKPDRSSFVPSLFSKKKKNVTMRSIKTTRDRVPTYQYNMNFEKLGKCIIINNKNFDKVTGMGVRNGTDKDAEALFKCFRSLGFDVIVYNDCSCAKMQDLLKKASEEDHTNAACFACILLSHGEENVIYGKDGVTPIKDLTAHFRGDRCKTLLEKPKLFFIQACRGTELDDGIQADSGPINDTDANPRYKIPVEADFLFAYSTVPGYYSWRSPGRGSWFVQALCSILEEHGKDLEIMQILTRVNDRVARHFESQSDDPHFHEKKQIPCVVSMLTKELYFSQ
Put plainly: Inhibitory concentration against recombinant human caspase-7 […].

Chain of Caspase-8 (Q14790 217-374 limits assumed): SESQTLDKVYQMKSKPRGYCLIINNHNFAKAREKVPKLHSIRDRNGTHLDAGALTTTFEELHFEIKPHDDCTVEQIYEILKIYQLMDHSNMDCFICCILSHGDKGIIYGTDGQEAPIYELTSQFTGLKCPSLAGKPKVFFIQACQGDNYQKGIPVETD
Chain of Caspase-8 (Q14790 385-479 limits assumed): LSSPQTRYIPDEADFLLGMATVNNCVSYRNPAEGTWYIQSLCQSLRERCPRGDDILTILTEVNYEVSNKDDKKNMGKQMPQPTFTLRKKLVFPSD

Usually IC50 stands for the point on the concentration scale where inhibition reaches its midpoint. On to `CC[C@@H](C(=O)N[C@@H](CC(=O)O)C(=O)CSCc1ccccc1)n1cccc(NC(=O)[C@H](CC(=O)O)NC(C)=O)c1=O`, for which the IC50 in assay [1] was found to be 60 nM; in assay [2], 0.3 nM; in assay [3], 5200 nM; in assay [4], 220 nM; in assay [5], 10 nM.
As to `CCC(C(=O)N[C@@H](CC(=O)O)C(C)=O)n1cc(C(C)(C)C)nc(NCc2nonc2C)c1=O` (stereo not given in full), the concentration for half-maximal inhibition (IC50) in assay [1] was found to be 1230 nM; in assay [2] it was 64 nM; in assay [3], 5120 nM; in assay [4], 10000 nM; in assay [5], 480 nM.
For `CCC(C(=O)N[C@@H](CC(=O)O)C(=O)CNCN1C2CCC1CC2)n1ccnc(NCc2nonc2C)c1=O` (stereo not given in full) the same measures were 880 nM, 23 nM, 1450 nM, 9220 nM and 260 nM.
For `CCC(C(=O)N[C@@H](CC(=O)O)C(=O)CNCN1CCOCC1)n1cc(C(C)(C)C)nc(NCc2nonc2C)c1=O` (stereo not given in full) the same measures were 730 nM, 110 nM, 8620 nM, greater than 10000 nM and 540 nM.
The like results for `CCC(C(=O)N[C@@H](CC(=O)O)C(=O)c1ncc(-c2ccccc2)o1)n1ccnc(NCc2nonc2C)c1=O` (stereo not given in full) were, in that order, 460 nM, 63 nM, 8390 nM, 9570 nM and 750 nM.
Regarding `CCCCN(C)CNCC(=O)[C@H](CC(=O)O)NC(=O)C(CC)n1ccnc(NCc2nonc2C)c1=O` (stereo not given in full), the IC50 in assay [1] is 31 nM; in assay [2], 15 nM; in assay [3], 300 nM; in assay [4] it was greater than 10000 nM; in assay [5] it was 130 nM.
As for `CCC(C(=O)N[C@@H](CC(=O)O)C(=O)CCCc1ccccc1)n1cc(C(C)(C)C)nc(NCc2nonc2C)c1=O` (stereo not given in full), the IC50 is 5130 nM in assay [1]; 14 nM in assay [2]; 1380 nM in assay [3]; 5280 nM in assay [4]; 140 nM in assay [5].
For `CCCCCCN(C)CNCC(=O)[C@H](CC(=O)O)NC(=O)C(CC)n1cc(C(C)C)nc(NCc2nonc2C)c1=O` (stereo not given in full), the half-inhibitory concentration (IC50) in assay [1] was 63 nM; in assay [2], 13 nM; in assay [3], 4.8 nM; in assay [4] it was 9040 nM; in assay [5] it was 65 nM.
Regarding `CCCCCN(C)CNCC(=O)[C@H](CC(=O)O)NC(=O)C(CC)n1cc(C(C)(C)C)nc(NCc2nonc2C)c1=O` (stereo not given in full), the concentration for half-maximal inhibition (IC50) turned out to be 110 nM in assay [1]; 0.1 nM in assay [2]; 2.7 nM in assay [3]; 5950 nM in assay [4]; 36 nM in assay [5].
For `CCC(C(=O)N[C@@H](CC(=O)O)C(=O)CNCN(C)C)n1ccnc(NCc2nonc2C)c1=O` (stereo not given in full) the same measures were 890 nM, 42 nM, 2640 nM, greater than 10000 nM and 310 nM.
With `CCC(C(=O)N[C@@H](CC(=O)O)C(=O)CN[C@@H](C)c1ccccc1)n1ccnc(NCc2nonc2C)c1=O` (stereo not given in full), the IC50 worked out at 64 nM in assay [1]; 14 nM in assay [2]; 1200 nM in assay [3]; 9260 nM in assay [4]; 1040 nM in assay [5].
For the compound `CCOCN(C)CNCC(=O)[C@H](CC(=O)O)NC(=O)C(CC)n1ccnc(NCc2nonc2C)c1=O` (stereo not given in full), the IC50 was 1750 nM in assay [1]; 100 nM in assay [2]; 3990 nM in assay [3]; greater than 10000 nM in assay [4]; 1010 nM in assay [5].
For `CCC(C(=O)N[C@@H](CC(=O)O)C(=O)CNCN(CC)CC)n1ccnc(NCc2nonc2C)c1=O` (stereo not given in full) the same measures were 1140 nM, 120 nM, 3900 nM, greater than 10000 nM and 3240 nM.
Regarding `CCCCCN(C)CNCC(=O)[C@H](CC(=O)O)NC(=O)C(CC)n1ccnc(NCc2nonc2C)c1=O` (stereo not given in full), the IC50 in assay [1] is 48 nM; in assay [2], 13 nM; in assay [3], 300 nM; in assay [4] it was greater than 10000 nM; in assay [5], 110 nM.
For `CCCN(C)CNCC(=O)[C@H](CC(=O)O)NC(=O)C(CC)n1ccnc(NCc2nonc2C)c1=O` (stereo not given in full), the IC50 in assay [1] was 620 nM; in assay [2] it was 17 nM; in assay [3], 1420 nM; in assay [4], greater than 10000 nM; in assay [5], 320 nM.
As to `CCC(C(=O)N[C@@H](CC(=O)O)C(=O)CNCN(C)CC)n1ccnc(NCc2nonc2C)c1=O` (stereo not given in full), the IC50 in assay [1] is 56 nM; in assay [2], 26 nM; in assay [3], 1530 nM; in assay [4] it was greater than 10000 nM; in assay [5] it was 540 nM.
As to `CCCCCCN(C)CNCC(=O)[C@H](CC(=O)O)NC(=O)C(CC)n1ccnc(NCc2nonc2C)c1=O` (stereo not given in full), the 50% inhibitory concentration (IC50) in assay [1] was 28 nM; in assay [2] it was 11 nM; in assay [3] it was 130 nM; in assay [4], greater than 10000 nM; in assay [5] it was 140 nM.
As to `CCC(C(=O)N[C@@H](CC(=O)O)C(=O)CNCN1CCc2ccccc2C1)n1ccnc(NCc2nonc2C)c1=O` (stereo not given in full), the IC50 was 13 nM in assay [1]; 13 nM in assay [2]; 1250 nM in assay [3]; 7380 nM in assay [4]; 83 nM in assay [5].
Turning to `CCC(C(=O)N[C@@H](CC(=O)O)C(=O)CSCc1ccccc1)n1ccnc(NCCc2nc(C)no2)c1=O` (stereo not given in full), the 50% inhibitory concentration (IC50) was 900 nM in assay [1]; 80 nM in assay [2]; 15300 nM in assay [3]; 9100 nM in assay [4]; greater than 10000 nM in assay [5].
As to `CCCCCCN(C)CNCC(=O)[C@H](CC(=O)O)NC(=O)C(CC)n1cc(C(C)(C)C)nc(NCc2nonc2C)c1=O` (stereo not given in full), the 50% inhibitory concentration (IC50) was determined as 67 nM in assay [1]; 6 nM in assay [2]; 21 nM in assay [3]; 6480 nM in assay [4]; 42 nM in assay [5].
For `CCC(C(=O)N[C@@H](CC(=O)O)C(=O)CSCc1ccccc1)n1ccnc(NCCCc2nc(C)no2)c1=O` (stereo not given in full), the half-inhibitory concentration (IC50) in assay [1] is 1700 nM; in assay [2], 53 nM; in assay [3], 7100 nM; in assay [4] it was greater than 10000 nM; in assay [5], 2600 nM.
Turning to `CCCCCCN(C)CNCC(=O)[C@H](CC(=O)O)NC(=O)C(CC)n1cc(C(C)(CC)CC)nc(NCc2nonc2C)c1=O` (stereo not given in full), the IC50 in assay [1] is 110 nM; in assay [2], 16 nM; in assay [3] it was 25 nM; in assay [4], greater than 10000 nM; in assay [5] it was 87 nM.
For the compound `CCC(C(=O)N[C@@H](CC(=O)O)C(=O)CNCN1Cc2ccccc2C1)n1ccnc(NCc2nonc2C)c1=O` (stereo not given in full), the concentration for half-maximal inhibition (IC50) in assay [1] stood at 8.7 nM; in assay [2], 14 nM; in assay [3], 1520 nM; in assay [4], 4290 nM; in assay [5], 130 nM.
For `CCC(C(=O)N[C@@H](CC(=O)O)C(=O)CNCN1CCCC1)n1ccnc(NCc2nonc2C)c1=O` (stereo not given in full) the same measures were 290 nM, 33 nM, 840 nM, 6220 nM and 410 nM.
For `COc1ccc(S(C)(=O)=O)cc1CC(=O)N[C@H](C(=O)N[C@@H](CC(=O)O)C(=O)CSCc1ccccc1)C(C)C` the same measures were 1600 nM, 5 nM, 1000 nM, 490 nM and 120 nM.
`CCC(C(=O)N[C@@H](CC(=O)O)C(=O)CNCN1CCCCC1)n1cc(C(C)(C)C)nc(NCc2nonc2C)c1=O` (stereo not given in full): the half-inhibitory concentration (IC50) in assay [1] was 620 nM; in assay [2], 21 nM; in assay [3], 290 nM; in assay [4], greater than 10000 nM; in assay [5], 130 nM.
For `CCC(C(=O)N[C@@H](CC(=O)O)C(=O)CNCN1CCC(Cc2ccccc2)CC1)n1ccnc(NCc2nonc2C)c1=O` (stereo not given in full) the same measures were 47 nM, 56 nM, 1620 nM, 6020 nM and 840 nM.
With `CC(=O)N[C@@H](CC(=O)O)C(=O)N[C@@H](CCC(=O)O)C(=O)N[C@H](C(=O)N[C@@H](CC(=O)O)C(=O)CCCc1ccccc1)C(C)C`, the IC50 in assay [1] was 310 nM; in assay [2], 0.8 nM; in assay [3], 30000 nM; in assay [4], 16 nM; in assay [5] it was 8 nM.
